Laboratory results reported in US7915227B2, “Pharmaceutical formulations employing short-chain sphingolipids and their use” (Het Nederlands Kanker Instituut, priority 2003, dated 2011).

Tests used:
[1] = test system: BAEC; experiment: Doxorubicin uptake by cultured BAEC; type: cell-based; conditions: lipid 10 μM, doxorubicin 50 μM simultaneously, 60 minutes, uptake in the absence of lipid = 100%
Method: A range of glycosphingolipids and sphingomyelins having different structures were also studied. The data are summarised in the following tables, and are expressed as a percentage (+/−SD) of doxorubicin uptake by cultured BAEC, as compared to drug uptake in the absence of lipid. Glycosphingolipids and sphingomyelins were used at 10 μM. Doxorubicin was administered simultaneously at 50 μM. After 60 minutes, cells were washed and cellular doxorubicin contents were determined fluorimetrically. Background fluorescence was subtracted from all values and all data were corrected for protein contents. Each data point is the average value of at least three independent experiments, but some lipids were assayed in 10 or more independent experiments. For each experiment 4, 6 or 8 wells with cells were treated identically and the data were then averaged (=1 experiment).

[2] = test system: A431 cells; experiment: Cellular doxorubicin uptake; type: cell-based, human; conditions: 15 μM co-administered lipid, within an hour, control conditions = 100%
Method: A431 (adherent human epidermoid carcinoma cells) were cultured in Dulbecco's modified Eagle medium (DMEM), supplemented with 10% (v/v) fetal calf serum, 100 units/ml penicillin, 100 μg/ml streptomycin and 4 mM L-glutamine. Cells were sub-cultured once a week by trypsinization and maintained in a water-saturated atmosphere of 5% CO2 at 37° C. All studies were performed at a confluency of 80-90%.
For cellular doxorubicin accumulation measurements, A431 cells were cultured in flat-bottom 96-well plates. At confluency, cells were changed to serum-free medium and exposed to 50 μM free or to 20 μM liposomal doxorubicin. After extensive washing, cells were lysed in 100 μl of 1% (w/v) Triton X-100. Native fluorescence intensities were then measured by a Perkin Elmer Victor Wallac II fluorescence microplate reader, using 485 nm and 535 nm filters for excitation and emission, respectively. All values were corrected for background fluorescence. Cellular doxorubicin contents were calculated with the aid of standard amounts, and corrected for differences in protein content, as determined with the BCA assay (see, e.g., Smith et al., 1985).

[3] = test system: A431 cells; experiment: Cell viability (MTT assay); type: cell-based, human; conditions: for viability after 24 hour exposure: 24 hour exposure to 20 μM lipid
Method: For viability assessment, A431 cells were cultured in flat-bottom 96-well plates. After experimental treatments, 100 μg of the mitochondrial dehydrogenase substrate MTT was added to each well (see, e.g., Carmichael et al., 1987). Cells were then incubated for 60 minutes at 37° C. After centrifugation (3000 rpm, 10 minutes at 4° C.) supernatants were removed. The precipitated blue formazan products were then dissolved in 100 μl DMSO, and absorbencies were read in a Bio-Tek Instruments EL 340 photospectrometric microplate reader at 540 nm. Background absorbencies were subtracted and values from wells containing untreated control cells were set at 100% viability.

[4] = test system: A431 cells; experiment: Membrane leakage assay (LDH release); type: cell-based, human; conditions: for LDH release: 100 μM lipid
Method: To investigate (loss of) plasma membrane integrity, the release of the cytosolic enzyme LDH into phenol red-free cell culture medium was monitored. Flat-bottom 96-well plates containing (liposome-treated) A431 cells were centrifuged (2000 rpm, 5 minutes at 20° C.) and 50 μl aliquots of the supernatants were assessed for LDH activity with the CytoTox 96 kit, according the manufacturer's instructions. Values obtained from cells that were lysed in 0.8% Triton X-100 served as positive control. All data were corrected for protein contents, as determined with the BCA assay (see, e.g., Smith et al., 1985).

SMILES | doxorubicin uptake, mean % ± SD (sphingomyelins) [1] | doxorubicin uptake, mean % ± SD (glycosphingolipids) [1] | also measured
CCCCCCCCCCCCC/C=C/[C@@H](OC)[C@H](COP(=O)([O-])OCC[N+](C)(C)C)NC(=O)CCCCCCC [3-O-methyl-C8-SM] | 249.8 ± 36.5% |  | 
CCCCCCCCCCCCC/C=C/[C@@H](O)[C@@H](N)CO[C@@H]1O[C@H](CO)[C@H](O)[C@H](O)[C@H]1O [C0-GalCer] |  | 98.2 ± 9.3% | 
CCCCCCCCCCCCC/C=C/[C@@H](O)[C@@H](N)CO[C@@H]1O[C@H](CO)[C@@H](O)[C@H](O)[C@H]1O [C0-GlcCer] |  | 86.7 ± 16.2% | 
CCCCCCCCCCCCC/C=C/[C@@H](O)C(N)CO[C@H]1O[C@H](CO)[C@@H](O[C@@H]2O[C@H](CO)[C@H](O)[C@H](O)[C@H]2O)[C@H](O)[C@@H]1O (stereo partly drawn) [C0-LacCer] |  | 93.8 ± 4.0% | 
CCCCCCCCCCCCC/C=C/[C@@H](O)[C@@H](N)COP(=O)([O-])OCC[N+](C)(C)C [C0-SM (SPC)] | 128.3 ± 19.5% |  | 
CCCCCCCCCCCCC/C=C/[C@@H](O)[C@H](CO)NC(=O)CCCCC [C6-Cer] | 96.6 ± 17.3% |  | 
CCCCCCCCCCCCC/C=C/[C@@H](O)[C@H](COP(=O)([O-])OCC[N+](C)(C)C)NC(=O)CCCCC [C6-SM, N-hexanoyl-sphingomyelin] | 330.6 ± 92.3% |  | uptake of free doxorubicin [2]: 461.8±126.9%; viability after 24 hour exposure [3]: 29.3±5.5%; viable cells ([3]; determined 24 hours after a 1 hour incubation with 10 μM lipid): 95.6±19.1%; LDH release [4]: 53.9±7.9%; LDH release (of total LDH activity) ([4]; 1 hour incubation with 10 μM lipid, 0.8% Triton X-100 = 100%): 0.5±0.5%
CCCCCCCCCCCCC/C=C/[C@@H](O)[C@H](COP(=O)(O)O)NC(=O)CCCCCCC [C8-Cer-1-P] | 122.2 ± 7.2% |  | 
CCCCCCCCCCCCCC=CC(O)C(COC1OC(CO)C(O)C(O)C1O)NC(=O)CCCCCCC (stereo not drawn) [C8-GalCer] |  | 213.7 ± 31.1% | 
CCCCCCCCCCCCC/C=C/[C@@H](O)[C@H](COC1OC(CO)C(O)C(O)C1O)NC(=O)CCCCCCC (stereo partly drawn) [C8-GlcCer, N-octanoyl-glucosylceramide] |  | 335.8 ± 88.5% | uptake of free doxorubicin [2]: 271.7±58.5%; viability after 24 hour exposure [3]: 71.3±5.3%; LDH release [4]: 0.0±0.6%
CCCCCCCCCCCCCC=CC(O)C(COC1OC(CO)C(OC2OC(CO)C(O)C(O)C2O)C(O)C1O)NC(=O)CCCCCCC (stereo not drawn) [C8-LacCer] |  | 301.5 ± 41.2% | 
CCCCCCCCCCCCCC=CC(O)C(COC1OC(CO)C(O)C(O)C1O)NC(=O)CCCCCCCCCCC (stereo not drawn) [C12-GlcCer] |  | 85.6 ± 12.0% | 
CCCCCCCCCCCCC/C=C/[C@@H](O)[C@@H](N)CO [sphingosine, (2S,3R,4E)-2-amino-4-octadecene-1,3-diol] | 100.4 ± 20.3% |  | 
